± gives the standard deviation of the averaged measurements.
compound: CC(=O)N1CCc2c(c(N3CCCc4cc(-c5cnn(C)c5)c(C(F)F)cc43)nn2C2CCC(CN3CCN(c4ccc5c(c4)C(=O)N(C4CCC(=O)NC4=O)C5=O)CC3)CC2)C1 [CBPD-409]; assay: AUC of viability dose-response curve (relative to vehicle, 8 doses up to 10 µM) (fraction); higher = less sensitive (more viable); extreme values may be limits of the assay
Experimental: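 PRISM multiplexed pooled barcoded cell line viability screen at the Broad Institute, 887 cancer cell lines treated with CBPD-409 (p300/CBP PROTAC degrader) at 8 concentrations in threefold dilution, top dose 10 µM. The read-out is the area under the dose-response curve of relative viability versus vehicle (n=3). AUC < 0.3 is called strongly sensitive and AUC > 0.8 resistant.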

Test System	AUC of viability dose-response curve
OCIC4P_OVARY	0.99
OCIC5X_OVARY	0.69
OCILY3_HAEMATOPOIETIC_AND_LYMPHOID_TISSUE	0.617
OCILY18_HAEMATOPOIETIC_AND_LYMPHOID_TISSUE	0.451
OCILY19_HAEMATOPOIETIC_AND_LYMPHOID_TISSUE	0.725
OCILY132_HAEMATOPOIETIC_AND_LYMPHOID_TISSUE	1
OCIM1_HAEMATOPOIETIC_AND_LYMPHOID_TISSUE	0.286
OCIP5X_OVARY	1
OCUG1_BILIARY_TRACT	1
OE19_OESOPHAGUS	0.884
OE21_OESOPHAGUS	1
OE33_OESOPHAGUS	0.776
ONCODG1_OVARY	1
ONDA9_CENTRAL_NERVOUS_SYSTEM	1
ONS76_CENTRAL_NERVOUS_SYSTEM	0.922 ± 0.11
OSC20_UPPER_AERODIGESTIVE_TRACT	0.936
OSRC2_KIDNEY	1
OV7_OVARY	1
OV17R_OVARY	0.712
OV56_OVARY	1
OVCAR8_OVARY	0.486
OVISE_OVARY	1
OVK18_OVARY	0.365
OVKATE_OVARY	1

Test System	AUC of viability dose-response curve
OVTOKO_OVARY	0.781
OZ_BILIARY_TRACT	0.851
P12ICHIKAWA_HAEMATOPOIETIC_AND_LYMPHOID_TISSUE	0.739
PA1_OVARY	1
PACADD119_PANCREAS	0.991
PACADD137_PANCREAS	0.587
PACADD161_PANCREAS	0.652
PANC1_PANCREAS	0.999
PANC0203_PANCREAS	0.751
PANC0327_PANCREAS	1
PANC0403_PANCREAS	0.725
PANC0504_PANCREAS	0.671
PANC0813_PANCREAS	0.953
PANC1005_PANCREAS	1
PATU8902_PANCREAS	0.689
PATU8988S_PANCREAS	0.253
PATU8988T_PANCREAS	0.499
PC3_PROSTATE	0.763
PC14_LUNG	0.877
PEA1_OVARY	0.845
PECAPJ15_UPPER_AERODIGESTIVE_TRACT	0.917
PECAPJ41CLONED2_UPPER_AERODIGESTIVE_TRACT	0.662
PECAPJ49_UPPER_AERODIGESTIVE_TRACT	0.455
PEDS005TSUSP_KIDNEY	0.309

Test System	AUC of viability dose-response curve
PF382_HAEMATOPOIETIC_AND_LYMPHOID_TISSUE	0.566
PFSK1_CENTRAL_NERVOUS_SYSTEM	0.531
PK1_PANCREAS	0.685
PK8_PANCREAS	0.556
PK45H_PANCREAS	1
PK59_PANCREAS	0.694
PL21_HAEMATOPOIETIC_AND_LYMPHOID_TISSUE	0.499
PLCPRF5_LIVER	1
PMFKO14_LARGE_INTESTINE	0.705
PSN1_PANCREAS	0.639
QGP1_PANCREAS	0.661
RBE_BILIARY_TRACT	1
RCC10RGB_KIDNEY	1
RCHACV_HAEMATOPOIETIC_AND_LYMPHOID_TISSUE	0.298
RCK8_HAEMATOPOIETIC_AND_LYMPHOID_TISSUE	0.633
RCM1_LARGE_INTESTINE	1
RDES_BONE	0.484
RD_SOFT_TISSUE	0.657 ± 0.29
RERFGC1B_STOMACH	0.993
RERFLCAD1_LUNG	1
RERFLCAD2_LUNG	0.946
RERFLCAI_LUNG	0.913
RERFLCKJ_LUNG	1
RERFLCMS_LUNG	0.837

Test System	AUC of viability dose-response curve
RH4_SOFT_TISSUE	0.308
RH28_SOFT_TISSUE	0.625
RH30_SOFT_TISSUE	0.841 ± 0.22
RH36_SOFT_TISSUE	0.779
RHJT_SOFT_TISSUE	0.512
RI1_HAEMATOPOIETIC_AND_LYMPHOID_TISSUE	0.424
RKN_SOFT_TISSUE	1
RKO_LARGE_INTESTINE	0.854
RL952_ENDOMETRIUM	0.996
RL_HAEMATOPOIETIC_AND_LYMPHOID_TISSUE	0.651
RMGI_OVARY	0.73
RMSYM_SOFT_TISSUE	0.394
RMUGS_OVARY	0.866
RO82W1_THYROID	1
RPMI7951_SKIN	1
RPMI8402_HAEMATOPOIETIC_AND_LYMPHOID_TISSUE	0.266
RT4_URINARY_TRACT	0.887
RT112_URINARY_TRACT	0.83
RVH421_SKIN	0.929
S117_THYROID	0.612
SAOS2_BONE	0.466
SBC5_LUNG	0.687
SCABER_URINARY_TRACT	0.714
SCC3_HAEMATOPOIETIC_AND_LYMPHOID_TISSUE	1

Test System	AUC of viability dose-response curve
SCC9_UPPER_AERODIGESTIVE_TRACT	0.687
SCC25_UPPER_AERODIGESTIVE_TRACT	1
SCLC21H_LUNG	1
SEM_HAEMATOPOIETIC_AND_LYMPHOID_TISSUE	0.347
SF126_CENTRAL_NERVOUS_SYSTEM	0.521
SF295_CENTRAL_NERVOUS_SYSTEM	0.833
SF539_CENTRAL_NERVOUS_SYSTEM	1
SG231_BILIARY_TRACT	0.46
SH4_SKIN	0.409
SH10TC_STOMACH	0.626
SHMAC5_PROSTATE	1
SHP77_LUNG	0.641
SIMA_AUTONOMIC_GANGLIA	0.3 ± 0.073
SISO_CERVIX	0.987
SJSA1_BONE	0.673 ± 0.46
SKES1_BONE	0.286 ± 0.11
SKGII_ENDOMETRIUM	0.894
SKGI_ENDOMETRIUM	1
SKGT2_STOMACH	0.887
SKGT4_OESOPHAGUS	0.575
SKHEP1_LIVER	1
SKLMS1_SOFT_TISSUE	0.829
SKLU1_LUNG	0.753
SKM1_HAEMATOPOIETIC_AND_LYMPHOID_TISSUE	1

Test System	AUC of viability dose-response curve
SKMEL2_SKIN	1
SKMEL3_SKIN	0.818
SKMEL5_SKIN	0.506
SKMEL24_SKIN	1
SKMEL28_SKIN	0.575
SKMEL30_SKIN	0.703
SKMES1_LUNG	0.848
SKNAS_AUTONOMIC_GANGLIA	1
SKNBE2_AUTONOMIC_GANGLIA	0.539 ± 0.23
SKNDZ_AUTONOMIC_GANGLIA	0.267
SKNFI_AUTONOMIC_GANGLIA	0.854
SKNMC_BONE	0.996
SKNO1_HAEMATOPOIETIC_AND_LYMPHOID_TISSUE	0.247
SKN_ENDOMETRIUM	0.778
SKOV3_OVARY	1
SKPNDW_BONE	1
SKUT1_SOFT_TISSUE	0.609
SMSCTR_SOFT_TISSUE	0.847
SNB75_CENTRAL_NERVOUS_SYSTEM	1
SNGM_ENDOMETRIUM	0.527
SNU1_STOMACH	1
SNU46_UPPER_AERODIGESTIVE_TRACT	0.547
SNU61_LARGE_INTESTINE	0.875
SNU81_LARGE_INTESTINE	0.767

Reference: the supplement of paper PMC12513837
